Article PMC7168327, “Designed Antimicrobial Peptides for Topical Treatment of Antibiotic Resistant Acne Vulgaris” (Antibiotics, 2020)
Converted amounts (≈) assume the structure as drawn. Bridge positions count the residues as written; N and C are the ends. Peptide text beside a SMILES is read from it.

Columns and labels:
Type in all cases: cell-based, Cutibacterium acnes
C. acnes HL007PA1 = settings: C. acnes HL007PA1; RCM broth, anaerobic, 1 × 10^6 CFU per mL, two-fold dilutions 0.5–32 μg/mL, 48 h, OD 600 nm; mean of three replicates
Summary of the method: (§1)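 Log-phase cultures (OD600nm = 1.0, RCM plus sodium thioglycolate, 37 °C) diluted to 1 × 10^6 CFU per mL; 2-fold dilutions 0.5–32 μg per mL, 48 h, anaerobic; MIC by OD600nm; n = 3.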

C. acnes HL013PA1 = settings: C. acnes HL013PA1; RCM broth, anaerobic, 1 × 10^6 CFU per mL, two-fold dilutions 0.5–32 μg/mL, 48 h, OD 600 nm; mean of three replicates
Summary of the method: as §1

C. acnes HL038PA1 = settings: C. acnes HL038PA1; RCM broth, anaerobic, 1 × 10^6 CFU per mL, two-fold dilutions 0.5–32 μg/mL, 48 h, OD 600 nm; mean of three replicates
Summary of the method: as §1

C. acnes HL045PA1 = settings: C. acnes HL045PA1; RCM broth, anaerobic, 1 × 10^6 CFU per mL, two-fold dilutions 0.5–32 μg/mL, 48 h, OD 600 nm; mean of three replicates
Summary of the method: as §1

C. acnes HL053PA1 = settings: C. acnes HL053PA1; RCM broth, anaerobic, 1 × 10^6 CFU per mL, two-fold dilutions 0.5–32 μg/mL, 48 h, OD 600 nm; mean of three replicates
Summary of the method: as §1

C. acnes HL082PA2 = settings: C. acnes HL082PA2; RCM broth, anaerobic, 1 × 10^6 CFU per mL, two-fold dilutions 0.5–32 μg/mL, 48 h, OD 600 nm; mean of three replicates
Summary of the method: as §1

[1] = system: ten C. acnes clinical isolates and two C. acnes ATCC reference strains
Summary of the method: as §1

CC[C@H](C)[C@@H]1NC(=O)CNC(=O)[C@H](CCCCN)NC(=O)[C@H](Cc2ccc(O)cc2)NC(=O)[C@@H]2CSSC[C@H](NC1=O)C(=O)N[C@@H](Cc1ccc(O)cc1)C(=O)N[C@@H](CCCCN)C(=O)N[C@@H](CCCCN)C(=O)N[C@H](C(=O)N[C@@H](CCCCN)C(N)=O)CSSC[C@H](NC(=O)[C@H](Cc1c[nH]c3ccccc13)NC(=O)[C@@H](N)CCCNC(=N)N)C(=O)N[C@@H](Cc1ccccc1)C(=O)N[C@@H](CCCCN)C(=O)N[C@@H](C(C)C)C(=O)N2 [RP556] (H-RWCFKVCYKGICYKKCK-NH2; disulfide 3-16, 7-12)
MIC (C. acnes HL007PA1): 4 µg/mL (≈ 1.86 µM) | MIC (C. acnes HL013PA1): 2 µg/mL (≈ 0.929 µM) | MIC (C. acnes HL038PA1): 4 µg/mL (≈ 1.86 µM) | MIC (C. acnes HL045PA1): 4 µg/mL (≈ 1.86 µM) | MIC (C. acnes HL053PA1): 4 µg/mL (≈ 1.86 µM) | MIC (C. acnes HL082PA2): 2 µg/mL (≈ 0.929 µM) | in vitro anti-bacterial activity against the C. acnes bacterial strains (in words) ([1]; 0.5–32 μg/mL concentration range evaluated): most active | MIC values against all C. acnes isolates ([1]; span over ten antibiotic resistant isolates and two ATCC reference strains): 2 to 8 µg/mL
